# BindingDB's records for PubMed 35073486 (The University of Queensland, 2022)
# Assay: Inhibition of P-gp mediated doxorubicin resistance in human SW620/AD300 cells overexpressing P-gp measured after 48 hrs by MTT assay
row,IC50 [nM],SMILES
1,5750,COc1cccc2c1C(=O)c1c(O)c3c(c(O)c1C2=O)C[C@@](O)(C(=O)CO)C[C@@H]3O[C@H]1C[C@H](N)[C@H](O)[C@H](C)O1 [Adriamycin]

# Assay: Inhibition of P-gp mediated doxorubicin resistance in human SW620/AD300 cells overexpressing P-gp in presence of doxorubicin measured after 52 hrs by MTT assay
row,IC50 [nM],SMILES
1,1530,C[C@H]1O[C@H](CC(=O)O)Cc2c1c(O)c1c3c(c4n(c23)[C@@H]([C@@H](C)O)CC4)C=CC1=O
2,1200,COC(=O)C[C@H]1Cc2c(c(O)c3c4c(c5n(c24)[C@H]([C@@H](C)O)CC5)C=CC3=O)[C@H](C)O1
3,1010,C[C@@H]1OC(CC(=O)O)=Cc2c1c(O)c1c3c(c4n(c23)[C@H]([C@@H](C)O)CC4)C=CC1=O
4,1440,C[C@H]1OC(CC(=O)O)=Cc2c1c(O)c1c3c(c4n(c23)[C@H]([C@@H](C)O)CC4)C=CC1=O
5,1480,C[C@@H]1O[C@@H](CC(=O)O)C(=O)c2c1c(O)c1c3c(c4n(c23)[C@H]([C@@H](C)O)CC4)C=CC1=O
6,4490,C[C@@H](O)[C@@H]1CCc2c3c4c(c(O)c(O)c(C[C@@H](O)CC(=O)O)c4n21)C(=O)C=C3
7,5040,C[C@H]1Oc2c(O)c3c4c(c5n(c4c2C[C@H](CC(=O)O)O1)[C@H]([C@@H](C)O)CC5)C=CC3=O

row,SMILES,IC50 [nM]
1,C[C@H]1O[C@]2(C)CC(=O)O[C@]2(C)c2c1c(O)c1c3c(c4n(c23)[C@@H]([C@@H](C)O)CC4)C=CC1=O,7580
